Laboratory results published in ChEMBL document CHEMBL5247620, “Lupane derivatives containing various aryl substituents in the position 3 have selective cytostatic effect in leukemic cancer cells including resistant phenotypes” (Eur J Med Chem, 2022).
Active and inactive are the calls of the source. The calls are words filed in the database; no cut-off is given here.

Key:
[1] = Microsomal stability in human liver microsome as compound remaining at 2 uM measured after 15 mins in presence of NADPH by RF-MS analysis; format: ADME; details: liver microsomes, read-out: Stability
CCRF-CEM [2] = test: Induction of apoptosis in human CCRF-CEM cells assessed as early apoptotic cells at 1 times IC50 concentration incubated for 24 hrs by annexin V FITC/propidium iodide staining based flow cytometry (reference value: 2.6 %); format: functional
CCRF-CEM [3] = test: Induction of apoptosis in human CCRF-CEM cells assessed as decrease in cell number at 1 times IC50 concentration incubated for 24 to 74 hrs by annexin V FITC/propidium iodide staining based flow cytometry; format: functional; details: time 24-74 hrs
CEM-DNR = test: Cytotoxicity against human CEM-DNR cells assessed as inhibition of cell growth incubated for 72 hrs by MTS assay; format: functional, cell-based
[4] = Plasma stability in human assessed as compound remaining at 2 uM measured after 60 mins by RF-MS analysis; format: ADME, cell-free; details: read-out: Stability
[5] = Plasma stability in human assessed as compound remaining at 2 uM measured after 30 mins by RF-MS analysis; format: ADME, cell-free; details: read-out: Stability
CCRF-CEM [6] = test: Induction of apoptosis in human CCRF-CEM cells assessed as decrease in Rb phosphorylation level at Ser807/811 at 5 times IC50 concentration incubated for 24 hrs by western blot assay; format: functional, cell-based
CCRF-CEM [7] = test: Induction of cell cycle arrest in human CCRF-CEM cells assessed as decrease of cell population at S phase at 5 times IC50 concentration incubated for 24 to 72 hrs by propidium iodide staining based flow cytometry; format: functional; details: time 24-72 hrs
CCRF-CEM [8] = test: Induction of cell cycle arrest in human CCRF-CEM cells assessed as accumulation of cells at G1 phase at 1 times IC50 concentration incubated for 24 to 72 hrs by propidium iodide staining based flow cytometry; format: functional; details: time 24-72 hrs
A549 = test: Cytotoxicity against human A549 cells assessed as inhibition of cell growth incubated for 72 hrs by MTS assay; format: functional, cell-based; details: A549, 72 h
CCRF-CEM [9] = test: Cytotoxicity against human CCRF-CEM cells assessed as inhibition of cell growth incubated for 72 hrs by MTS assay; format: functional, cell-based
[10] = Plasma stability in human assessed as compound remaining at 2 uM measured after 15 mins by RF-MS analysis; format: ADME, cell-free; details: read-out: Stability
[11] = Cytotoxicity against human BJ cells assessed as inhibition of cell growth incubated for 72 hrs by MTS assay; format: toxicity, cell-based
[12] = Chemical stability of the compound in PBS buffer assessed as compound remaining at pH 7.4 at 2 uM measured after 30 mins by RF-MS analysis; format: physicochemical; details: read-out: Stability
CCRF-CEM [13] = test: Induction of apoptosis in human CCRF-CEM cells assessed as early apoptotic cells at 5 times IC50 concentration incubated for 24 hrs by annexin V FITC/propidium iodide staining based flow cytometry (reference value: 2.6 %); format: functional
[14] = Apparent permeability across apical to basolateral side in human Caco-2 cells assessed as drug recovery incubated for 2 hr by high-throughput spectrometric analysis; format: ADME, cell-based; details: read-out: Drug recovery
CCRF-CEM [15] = test: Induction of apoptosis in human CCRF-CEM cells assessed as decrease in Bcl-2 protein expression level at 5 times IC50 concentration incubated for 24 hrs by western blot assay; format: functional, cell-based
CCRF-CEM [16] = test: Induction of apoptosis in human CCRF-CEM cells assessed as viable cells at 1 times IC50 concentration incubated for 24 hrs by annexin V FITC/propidium iodide staining based flow cytometry (reference value: 96 %); format: functional
[17] = Apparent permeability across apical to basolateral side in human Caco-2 cells incubated for 2 hr by high-throughput spectrometric analysis; format: ADME, cell-based
[18] = Cytotoxicity against human p53HCT116 cells assessed as inhibition of cell growth incubated for 72 hrs by MTS assay; format: functional, cell-based; details: p53HCT116, 72 h
[19] = Cytotoxicity against human K562-Tax cells assessed as inhibition of cell growth incubated for 72 hrs by MTS assay; format: functional, cell-based
CCRF-CEM [20] = test: Induction of apoptosis in human CCRF-CEM cells assessed as late apoptotic cells at 1 times IC50 concentration incubated for 24 hrs by annexin V FITC/propidium iodide staining based flow cytometry (reference value: 1.4 %); format: functional
[21] = Chemical stability of the compound in PBS buffer assessed as compound remaining at pH 7.4 at 2 uM measured after 60 mins by RF-MS analysis; format: physicochemical; details: read-out: Stability
[22] = Chemical stability of the compound in PBS buffer assessed as compound remaining at pH 7.4 at 2 uM measured after 120 mins by RF-MS analysis; format: physicochemical; details: read-out: Stability
[23] = Apparent permeability across apical to basolateral side in dog MDCK-MDR1 cells incubated for 1 hr by high-throughput spectrometric analysis; format: ADME, cell-based, Canis lupus familiaris
[24] = Apparent permeability across apical to basolateral side in dog MDCK-MDR1 cells assessed as drug recovery incubated for 1 hr by high-throughput spectrometric analysis; format: ADME, cell-based, Canis lupus familiaris; details: read-out: Drug recovery
CCRF-CEM [25] = test: Induction of apoptosis in human CCRF-CEM cells assessed as viable cells at 5 times IC50 concentration incubated for 24 hrs by annexin V FITC/propidium iodide staining based flow cytometry (reference value: 96 %); format: functional
CCRF-CEM [26] = test: Induction of cell cycle arrest in human CCRF-CEM cells assessed as accumulation of cells at G1 phase at 5 times IC50 concentration incubated for 24 to 72 hrs by propidium iodide staining based flow cytometry; format: functional; details: time 24-72 hrs
CCRF-CEM [27] = test: Induction of apoptosis in human CCRF-CEM cells assessed as effect on total Rb protein level at 1 times IC50 concentration incubated for 24 hrs by western blot assay; format: functional, cell-based
CCRF-CEM [28] = test: Induction of apoptosis in human CCRF-CEM cells assessed as effect on total Rb protein level at 5 times IC50 concentration incubated for 24 hrs by western blot assay; format: functional, cell-based
K562 = test: Cytotoxicity against human K562 cells assessed as inhibition of cell growth incubated for 72 hrs by MTS assay; format: functional, cell-based; details: K562, 72 h
[29] = Chemical stability of the compound in PBS buffer assessed as compound remaining at pH 7.4 at 2 uM measured after 15 mins by RF-MS analysis; format: physicochemical; details: read-out: Stability
CCRF-CEM [30] = test: Induction of cell cycle arrest in human CCRF-CEM cells assessed as decrease of cell population at S phase at 1 times IC50 concentration incubated for 24 to 72 hrs by propidium iodide staining based flow cytometry; format: functional; details: time 24-72 hrs
[31] = Microsomal stability in human liver microsome as compound remaining at 2 uM measured after 60 mins in presence of NADPH by RF-MS analysis; format: ADME; details: liver microsomes, read-out: Stability
[32] = Plasma protein binding in human assessed as fraction bound at 10 uM incubated for 4 hrs by rapid equilibrium dialysis based RF-MS analysis; format: ADME, cell-free; details: read-out: PPB (converted)
[33] = Microsomal stability in human liver microsome as compound remaining at 2 uM measured after 30 mins in presence of NADPH by RF-MS analysis; format: ADME; details: liver microsomes, read-out: Stability
U2OS = test: Cytotoxicity against human U2OS cells assessed as inhibition of cell growth incubated for 72 hrs by MTS assay; format: functional, cell-based
[34] = Efflux ratio of apparent permeability from basolateral to apical side over apical to basolateral side in dog MDCK-MDR1 cells incubated for 1 hr by high-throughput spectrometric analysis; format: ADME, cell-based, Canis lupus familiaris
CCRF-CEM [35] = test: Induction of apoptosis in human CCRF-CEM cells assessed as late apoptotic cells at 5 times IC50 concentration incubated for 24 hrs by annexin V FITC/propidium iodide staining based flow cytometry (reference value: 1.4 %); format: functional
HCT-116 = test: Cytotoxicity against human HCT-116 cells assessed as inhibition of cell growth incubated for 72 hrs by MTS assay; format: functional, cell-based; details: HCT-116, 72 h
[36] = Efflux ratio of apparent permeability from basolateral to apical side over apical to basolateral side in human Caco-2 cells incubated for 2 hr by high-throughput spectrometric analysis; format: ADME, cell-based
CCRF-CEM [37] = test: Induction of apoptosis in human CCRF-CEM cells assessed as decrease in cyclin A protein expression level at 5 times IC50 concentration incubated for 24 hrs by western blot assay; format: functional, cell-based
[38] = Plasma stability in human assessed as compound remaining at 2 uM measured after 120 mins by RF-MS analysis; format: ADME, cell-free; details: read-out: Stability
[39] = Cytotoxicity against human MRC5 cells assessed as inhibition of cell growth incubated for 72 hrs by MTS assay; format: toxicity, cell-based
CCRF-CEM [40] = test: Induction of apoptosis in human CCRF-CEM cells assessed as decrease in cell number at 5 times IC50 concentration incubated for 24 to 74 hrs by annexin V FITC/propidium iodide staining based flow cytometry; format: functional; details: time 24-74 hrs
CCRF-CEM [41] = test: Induction of apoptosis in human CCRF-CEM cells assessed as decrease in Rb phosphorylation level at Ser780 at 5 times IC50 concentration incubated for 24 hrs by western blot assay; format: functional, cell-based

C=C(C)[C@@H]1CC[C@]2(C(=O)O)CC[C@]3(C)[C@H](CC[C@@H]4[C@@]5(C)CC=C(c6cccc(N)c6)C(C)(C)[C@@H]5CC[C@]43C)[C@@H]12
remaining at 0.25 h, 2 µM [1]: 108%
Activity (CCRF-CEM [2]): 3.3%
Activity (CCRF-CEM [3]): Active
IC50 (CEM-DNR): 8.9 µM
remaining at 1 h, 2 µM [4]: 82.5%
remaining at 0.5 h, 2 µM [5]: 88.7%
Activity (CCRF-CEM [6]): Active
Activity (CCRF-CEM [7]): Active
Activity (CCRF-CEM [8]): Active
IC50 (A549): 9.7 µM
IC50 (CCRF-CEM [9]): 1.8 µM
remaining at 0.25 h, 2 µM [10]: 97.7%
IC50 at 72 h [11]: 50 µM
remaining at 0.5 h, 2 µM [12]: 91.7%
Activity (CCRF-CEM [13]): 3.4%
recovery at 2 h [14]: 106%
Activity (CCRF-CEM [15]): Active
Activity (CCRF-CEM [16]): 95.2%
Papp A→B at 2 h [17]: 0.053 ×10⁻⁶ cm/s
IC50 [18]: 10 µM
IC50 [19]: 9 µM
Activity (CCRF-CEM [20]): 1.5%
remaining at 1 h, 2 µM [21]: 91.8%
remaining at 2 h, 2 µM [22]: 96.7%
Papp A→B at 1 h [23]: 1.73 ×10⁻⁶ cm/s
recovery at 1 h [24]: 31.5%
Activity (CCRF-CEM [25]): 94.8%
Activity (CCRF-CEM [26]): Active
Activity (CCRF-CEM [27]): inactive
Activity (CCRF-CEM [28]): inactive
IC50 (K562): 36 µM
remaining at 0.25 h, 2 µM [29]: 95.5%
Activity (CCRF-CEM [30]): Active
remaining at 1 h, 2 µM [31]: 94.8%
fraction unbound at 4 h, 10 µM [32]: 0.502
remaining at 0.5 h, 2 µM [33]: 107%
IC50 (U2OS): 31 µM
efflux ratio at 1 h [34]: 7.23
Activity (CCRF-CEM [35]): 1.8%
IC50 (HCT-116): 12 µM
efflux ratio at 2 h [36]: 3.92
Activity (CCRF-CEM [37]): Active
remaining at 2 h, 2 µM [38]: 71.5%
IC50 at 72 h [39]: 47 µM
Activity (CCRF-CEM [40]): Active
Activity (CCRF-CEM [41]): Active

C=C(C)[C@@H]1CC[C@]2(C(=O)O)CC[C@]3(C)[C@H](CC[C@@H]4[C@@]5(C)CC=C(c6cccc(O)c6)C(C)(C)[C@@H]5CC[C@]43C)[C@@H]12
remaining at 0.25 h, 2 µM [1]: 99.3%
Activity (CCRF-CEM [2]): 3.4%
Activity (CCRF-CEM [3]): Active
IC50 (CEM-DNR): 4 µM
remaining at 1 h, 2 µM [4]: 85.6%
remaining at 0.5 h, 2 µM [5]: 87.4%
Activity (CCRF-CEM [6]): Active
Activity (CCRF-CEM [7]): Active
Activity (CCRF-CEM [8]): Active
IC50 (A549): 14 µM
IC50 (CCRF-CEM [9]): 3.9 µM
remaining at 0.25 h, 2 µM [10]: 90.3%
IC50 at 72 h [11]: 31 µM
remaining at 0.5 h, 2 µM [12]: 93.5%
Activity (CCRF-CEM [13]): 6%
recovery at 2 h [14]: 97.5%
Activity (CCRF-CEM [15]): Active
Activity (CCRF-CEM [16]): 94.5%
Papp A→B at 2 h [17]: 2.32 ×10⁻⁶ cm/s
IC50 [18]: 12 µM
IC50 [19]: 3.8 µM
Activity (CCRF-CEM [20]): 2.1%
remaining at 1 h, 2 µM [21]: 102%
remaining at 2 h, 2 µM [22]: 105%
Papp A→B at 1 h [23]: 8.84 ×10⁻⁶ cm/s
recovery at 1 h [24]: 67.6%
Activity (CCRF-CEM [25]): 89%
Activity (CCRF-CEM [26]): 20%
Activity (CCRF-CEM [27]): inactive
Activity (CCRF-CEM [28]): inactive
IC50 (K562): 19 µM
remaining at 0.25 h, 2 µM [29]: 99.6%
Activity (CCRF-CEM [30]): Active
remaining at 1 h, 2 µM [31]: 95.8%
fraction unbound at 4 h, 10 µM [32]: 0.334
remaining at 0.5 h, 2 µM [33]: 97.8%
IC50 (U2OS): 17 µM
efflux ratio at 1 h [34]: 1.29
Activity (CCRF-CEM [35]): 5%
IC50 (HCT-116): 4 µM
efflux ratio at 2 h [36]: 1.72
Activity (CCRF-CEM [37]): Active
remaining at 2 h, 2 µM [38]: 86.7%
IC50 at 72 h [39]: 19 µM
Activity (CCRF-CEM [40]): Active
Activity (CCRF-CEM [41]): Active
